For the assay, the system named is lipid peroxides (LPO) in rat brain homogenate. Kind of assay: Antioxidant activity (Stocks' method): inhibition of lipid peroxide formation in brain homogenate supernatant, TBA method. As to conditions: for Inhibition (%): rat brain homogenate supernatant, 37° C., 60 minutes, MDA by TBA method. The class given is biochemical, Male Wistar rats. The protocol:
Several typical examples of the compound according to the invention were tested for antioxidant activity according essentially to the Stocks' method. Male Wistar rats (about 10 weeks old) were used. After perfusion for removing the blood from the brain, brain tissues were excised and homogenized in 4 weights of 0.1M phosphate-buffered saline (pH 7.4) with water cooling. The homogenate was centrifuged at 1,000×g for 10 minutes and the supernatant was used. The brain homogenate supernatant was diluted with 10 volumes of phosphate-buffered saline and 500 μl of the dilution was incubated at 37° C. for 60 minutes. The reaction was terminated by dipping the test tube into ice. After further addition 490 μl of 0.1M phosphate-buffered saline, assay was performed by the TBA method. The quantity of lipid peroxides (LPO) was expressed in terms of amount of malonedialdehyde (MDA) per milligram of protein. For protein assay, the Lowry method was used.

Where a name gives a salt, the structure may show the parent alone.

Consider `CCCCCCCCCCCCCCCCCC(=O)OCC(COP(=O)(O)OC1=C(O)C(C(O)CO)OC1=O)OC(=O)CCCCCCCCCCCCCCCCC` (stereo not drawn) [(1), 1,2-O-Distearoyl-3-glycerophosphoryl-ascorbic acid], for which the “Inhibition (%)” value was 100% (dose 1 × 10^-3 M), 100% (dose 1 × 10^-4 M) and 25.7% (dose 1 × 10^-5 M).
On to `CCCCCCCCCCCCCCCC(=O)OCC(COP(=O)(O)OC1=C(O)C(C(O)CO)OC1=O)OC(=O)CCCCCCCCCCCCCCC` (stereo not drawn) [(2), 1,2-O-Dipalmitoyl-3-glycerophosphoryl-ascorbic acid], for which the “Inhibition (%)” value is, setting by setting: (dose 1 × 10^-3 M) 100%; (dose 1 × 10^-4 M) 100%; (dose 1 × 10^-5 M) 55.9%.
`CCCCCCCCCCCCCCCCOCC(COP(=O)(O)OC1=C(O)C(C(O)CO)OC1=O)OCCCCCCCCCCCCCCCC` (stereo not drawn) [(3), 1,2-O-Dihexadecyl-3-glycerophosphoryl-ascorbic acid]: the “Inhibition (%)” value came to 100% (dose 1 × 10^-3 M), 100% (dose 1 × 10^-4 M) and 70.4% (dose 1 × 10^-5 M).
With `CCCCCCCCCCCC(=O)OCC(COP(=O)(O)OC1=C(O)C(C(O)CO)OC1=O)OC(=O)CCCCCCCCCCC` (stereo not drawn) [(4), 1,2-O-Dilauroyl-3-glycerophosphoryl-ascorbic acid potassium salt], the “Inhibition (%)” value runs as follows: (dose 1 × 10^-3 M) 97.8%; (dose 1 × 10^-4 M) 100%; (dose 1 × 10^-5 M) 8.6%.
In the case of `CCCCCCCCCCCC(=O)OCC(COC(=O)CCCCCCCCCCC)OP(=O)(O)OC1=C(O)C(C(O)CO)OC1=O` (stereo not drawn) [(5), 1,3-O-Dilauroyl-2-glycerophosphoryl-ascorbic acid potassium salt], the “Inhibition (%)” value by setting is: (dose 1 × 10^-3 M) 100%; (dose 1 × 10^-4 M) 82.2%; (dose 1 × 10^-5 M) 20.1%.
On to `O=C1O[C@H]([C@@H](O)CO)C(O)=C1O` [Ascorbic acid, reference compound], for which, for the setting “conclusion from the test results, compared to vitamin E”, the “antioxidant activity (in words)” value was “rather promoted oxidation”. Moreover, the “Inhibition (%)” value by setting is: (dose 1 × 10^-3 M) -22.9%; (dose 1 × 10^-4 M) -28.6%.
As to Vitamin E [reference compound], the “Inhibition (%)” value by setting is: (dose 1 × 10^-3 M) 94.3%; (dose 1 × 10^-4 M) 62.9%; (dose 1 × 10^-5 M) 28.6%.

The values above are taken from patent US5098898A, “Phospholipid derivatives” (Senju Pharmaceutical Co., Ltd., priority 1989, dated 1992).
